In patent publication US7244557B2, “Method of screening modulators of Nod1 signaling” (Regents of the University of Michigan, priority 2003, dated 2007):

Molecular target: T1, NOD1ΔLRR (Homo sapiens, UniProt Q9Y239)
T1 construct: pcDNA3-NOD1-ΔLRR(1–648)-FLAG; expressed in transfected cells; host or cells: HEK293T
T1 sequence (Q9Y239 1-648): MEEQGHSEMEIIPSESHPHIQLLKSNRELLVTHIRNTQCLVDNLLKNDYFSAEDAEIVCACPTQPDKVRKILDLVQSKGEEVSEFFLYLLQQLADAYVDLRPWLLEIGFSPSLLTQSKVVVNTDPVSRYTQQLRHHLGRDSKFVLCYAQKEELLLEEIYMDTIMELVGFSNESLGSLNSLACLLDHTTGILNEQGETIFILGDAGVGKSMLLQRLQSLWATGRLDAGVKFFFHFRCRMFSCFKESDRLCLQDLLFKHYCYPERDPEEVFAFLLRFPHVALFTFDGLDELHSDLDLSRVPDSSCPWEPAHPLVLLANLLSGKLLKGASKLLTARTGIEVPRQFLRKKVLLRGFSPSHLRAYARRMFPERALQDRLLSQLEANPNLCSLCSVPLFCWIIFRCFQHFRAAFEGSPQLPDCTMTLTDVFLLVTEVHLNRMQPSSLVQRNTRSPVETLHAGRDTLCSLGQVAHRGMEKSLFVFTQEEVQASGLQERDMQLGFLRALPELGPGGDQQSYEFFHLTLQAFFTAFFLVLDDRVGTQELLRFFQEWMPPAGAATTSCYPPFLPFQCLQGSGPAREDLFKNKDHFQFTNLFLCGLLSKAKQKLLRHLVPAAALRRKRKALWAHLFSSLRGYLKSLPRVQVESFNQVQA
Experiment: NF-κB activation assay, cells expressing mutant NOD1 lacking LRRs
Type: cell-based
Protocol: A) Structure of purified PGN fraction from B. subtilis (GM3P) and synthetic PGN-related compounds used in the study. B) Structure of MDP and four copies of GlcNAc-MurNAc with attached L-Ala-γ-D-Gln (4 mer) are indicated by closed and dotted boxes, respectively. C) The ability of cells were transfected with 0.3 ng pcDNA3-NOD1-Flag, 0.1 ng pcDNA3-Nod2 (NOD2) or vector control and reporter pBxIV-luc and pEF-BOS-β-gal plasmids to activate NF-κB. D) The ability of synthetic peptides, iE-DAP and iQ-DAP to stimulate NF-κB activation in the presence of control vector (−) and plasmids encoding NOD1 wild-type, mutant NOD1 lacking LRRs (NOD1ΔLRR) and NOD2. E) The ability of iE-DAP, iQ-DAP and sBLP (1 μg/ml) to activate NF-κB.
Reagents. LPS from S. typhimurium, intact and alkaline-detoxified LPS from E. coli O55:B5 as well as purified lipid A preparations of E. coli F583, MDP, DAP and dsRNA were obtained from Sigma-Aldrich (St. Louis, Mo.). PGN from S. aureus was from Fluka-Chemie (Buchs, Germany). Palmitoyl-Cys ((RS)-2,3-di(palmitoyloxy)-propyl)-Ala-Gly) (sBLP), was obtained from Bachem (Torrance, Calif.). […] The amino acid composition of E. coli O55:B5 LPS was determined using AccQ·Tag amino acid analysis system (Waters, Milford, Mass.) after hydrolysis at 110° C. for 24 hr. […]

In the case of “γ-D-glutamy-meso-diaminopimelic acid [iE-DAP]”, the “NF-κB activation by mutant NOD1 lacking the LRRs” value is reported as “did not respond”.
